Laboratory results taken from article PMC11882969 (Nature Communications, 2025).
Values joined by “and” are separate entries in the source; they are usually repeats but may differ in a detail not shown here. Equal entries are not always repeated.

Experiments:
hCB1 [1] = molecular target: T1, hCB1 (Homo sapiens, UniProt P21554); assay: Lance Ultra cAMP accumulation assay, CHO cells; type: cell-based; set-up: expressed in transfected cells; conditions: for cAMP assay signal, concentration-response point: replicates, sheet FigureS2a; for normalised cAMP response, concentration-response (Figure2f), replicate values: log[Compound;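 on all read-outs here: human CB1R stably expressed in CHO cells, ligands co-incubated with forskolin at room temperature, read-out is lowering of forskolin-stimulated cAMP accumulation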
T1 sequence (P21554 whole entry): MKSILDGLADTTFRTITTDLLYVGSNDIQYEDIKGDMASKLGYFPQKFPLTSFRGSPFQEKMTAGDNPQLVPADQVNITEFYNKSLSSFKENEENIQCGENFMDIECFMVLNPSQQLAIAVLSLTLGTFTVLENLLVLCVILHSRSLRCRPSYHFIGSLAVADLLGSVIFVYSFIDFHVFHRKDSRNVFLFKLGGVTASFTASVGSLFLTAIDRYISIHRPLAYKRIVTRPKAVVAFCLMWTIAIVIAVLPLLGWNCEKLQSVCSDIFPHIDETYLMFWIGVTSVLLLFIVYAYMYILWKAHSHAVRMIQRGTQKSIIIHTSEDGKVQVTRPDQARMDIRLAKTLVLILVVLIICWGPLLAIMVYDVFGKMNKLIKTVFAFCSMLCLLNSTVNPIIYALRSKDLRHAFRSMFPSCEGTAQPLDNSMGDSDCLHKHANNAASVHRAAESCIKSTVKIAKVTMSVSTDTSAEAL

hCB1 [2] = molecular target: T1, hCB1; assay: bioSensAll ebBRET signaling profiling, hCB1; type: cell-based; set-up: host or cells: HEK293SL cells, transient PEI transfection; conditions: for Gi1 hCB1 response: Gi1 biosensor; for Gi1 hCB1 / GoB hCB1: single replicate values, FigS6a

For `COC(=O)C(NC(=O)c1cc(C)n(-c2cccc(F)c2)n1)c1cccs1` (stereo not shown) [‘51486], the “cAMP assay signal, concentration-response point” value (shortened to “cAMP assay signal”) (hCB1 [1]; compound 0.01 nM) was 0.003086 and 0.002857 and 0.002584, the “cAMP assay signal” value (hCB1 [1]; compound 0.1 nM) was 0.003236 and 0.002959 and 0.003953* and the “cAMP assay signal” value (hCB1 [1]; compound 1 nM) was 0.003012 and 0.002545 and 0.00241. For the same molecule, the “cAMP assay signal” value (hCB1 [1]; compound 10 nM) was 0.003401 and 0.002801 and 0.00274, the “cAMP assay signal” value (hCB1 [1]; compound 100 nM) was 0.002632 and 0.003106 and 0.002457 and the “cAMP assay signal” value (hCB1 [1]; compound 1000 nM) was 0.002532 and 0.002088 and 0.00216. The “cAMP assay signal” value (hCB1 [1]; compound 10000 nM) was 0.001565 and 0.001538 and 0.001686, the “cAMP assay signal” value (hCB1 [1]; compound 100000 nM) was 0.001247 and 0.001041 and 0.0009747 and the “agonism, inhibition of forskolin-stimulated cAMP” value (hCB1 [1]; hCB1-expressing cells, in words) was “modest agonism”. For the same molecule, the “normalised cAMP response, concentration-response (Figure2f), replicate values” (“normalised cAMP response” below) (hCB1 [1]; M] -5) was 61.1478 and 37.2808 and 60.3783 and 74.6524, the “normalised cAMP response” value (hCB1 [1]; M] -6) was 88.8547 and 72.8445 and 99.0012 and 98.4034 and the “normalised cAMP response” value (hCB1 [1]; M] -7) was 93.8057 and 91.7167 and 95.78 and 96.566. For the same molecule, the “normalised cAMP response” value (hCB1 [1]; M] -8) was 85.2922 and 84.747 and 110.313 and 100.436, the “normalised cAMP response” value (hCB1 [1]; M] -9) was 104.899 and 94.89 and 101.982 and 109.312 and the “normalised cAMP response” value (hCB1 [1]; M] -10) was 98.9432 and 97.9859 and 99.2252 and 102.121. The “normalised cAMP response” value (hCB1 [1]; M] -11) was 94.0694 and 79.1039 and 104.119 and 97.9362, the “normalised cAMP response” value (hCB1 [1]; M] -12) was 99.9579 and 92.8829 and 101.899 and 97.9047 and the “Gi1 hCB1 response” value (hCB1 [2]; Log [Compound] (M) -4.22186) was 123.512. For the same molecule, the “Gi1 hCB1 response” value (hCB1 [2]; Log [Compound] (M) -4.63927) was 98.3102, the “Gi1 hCB1 response” value (hCB1 [2]; Log [Compound] (M) -5.05788) was 74.9216 and the “Gi1 hCB1 response” value (hCB1 [2]; Log [Compound] (M) -5.47381) was 77.764. For the same molecule, the “Gi1 hCB1 response” value (hCB1 [2]; Log [Compound] (M) -5.89285) was 72.6387, the “Gi1 hCB1 response” value (hCB1 [2]; Log [Compound] (M) -6.31878) was 38.0146 and the “Gi1 hCB1 response” value (hCB1 [2]; Log [Compound] (M) -6.72585) was 33.2921. For the same molecule, the “Gi1 hCB1 response” value (hCB1 [2]; Log [Compound] (M) -7.14267) was -1.511, the “Gi1 hCB1 response” value (hCB1 [2]; Log [Compound] (M) -7.55284) was -15.3428 and the “Gi1 hCB1 response” value (hCB1 [2]; Log [Compound] (M) -8) was 9.7692. For the same molecule, the “Gi1 hCB1 response” value (hCB1 [2]; Log [Compound] (M) -8.22186) was 0.839, the “Gi1 hCB1 response” value (hCB1 [2]; Log [Compound] (M) -8.39794) was -12.3884 and the “Gi1 hCB1 response” value (hCB1 [2]; Log [Compound] (M) -8.68787) was 2.204. The “Gi1 hCB1 response” value (hCB1 [2]; Log [Compound] (M) -9.15521) was -11.247, the “Gi1 hCB1 response” value (hCB1 [2]; Log [Compound] (M) -9.61989) was -13.1718 and the “Gi1 hCB1 response” value (hCB1 [2]; Log [Compound] (M) -10.0969) was -6.323. For the same molecule, the “Gi1 hCB1 response” value (hCB1 [2]; Log [Compound] (M) -10.5529) was -17.8943, the “Gi1 hCB1 response” value (hCB1 [2]; Log [Compound] (M) -11.0177) was -4.935 and the “Gi1 hCB1 response” value (hCB1 [2]; Log [Compound] (M) -11.4949) was -5.54. For the same molecule, the “Gi1 hCB1 response” value (hCB1 [2]; Log [Compound] (M) -11.9208) was -6.838, the “Gi1 hCB1 response” value (hCB1 [2]; Log [Compound] (M) -12.3979) was -1.466 and the “Gi1 hCB1 response” value (hCB1 [2]; Log [Compound] (M) -12.8861) was -7.42. The “Gi1 hCB1 response” value (hCB1 [2]; Log [Compound] (M) -13, individual replicate values) was -9.747 and -10.7098, the “Gi1 hCB1” value (hCB1 [2]; Log [Compound] (M) -4.22186) was 75.4915 and the “GoB hCB1” value (hCB1 [2]; Log [Compound] (M) -4.22186) was 69.3873. The “Gi1 hCB1” value (hCB1 [2]; Log [Compound] (M) -4.63927) was 68.0453, the “GoB hCB1” value (hCB1 [2]; Log [Compound] (M) -4.63927) was 69.0456 and the “Gi1 hCB1” value (hCB1 [2]; Log [Compound] (M) -5.05788) was 65.332. For the same molecule, the “GoB hCB1” value (hCB1 [2]; Log [Compound] (M) -5.05788) was 68.5421, the “Gi1 hCB1” value (hCB1 [2]; Log [Compound] (M) -5.47381) was 58.8724 and the “GoB hCB1” value (hCB1 [2]; Log [Compound] (M) -5.47381) was 63.2909. For the same molecule, the “Gi1 hCB1” value (hCB1 [2]; Log [Compound] (M) -5.89285) was 46.1383, the “GoB hCB1” value (hCB1 [2]; Log [Compound] (M) -5.89285) was 45.7032 and the “Gi1 hCB1” value (hCB1 [2]; Log [Compound] (M) -6.31878) was 23.9076. The “GoB hCB1” value (hCB1 [2]; Log [Compound] (M) -6.31878) was 23.3139, the “Gi1 hCB1” value (hCB1 [2]; Log [Compound] (M) -6.72585) was 13.671 and the “GoB hCB1” value (hCB1 [2]; Log [Compound] (M) -6.72585) was 15.8509. For the same molecule, the “Gi1 hCB1” value (hCB1 [2]; Log [Compound] (M) -7.14267) was 3.866.
